Assay results reported in PMC11904993, “Humanized Candida and NanoBiT Assays Expedite Discovery of Bdf1 Bromodomain Inhibitors With Antifungal Potential” (Advanced Science, 2025).
Values joined by “and” are separate entries in the source; they are usually repeats but may differ in a detail not shown here. Identical values can stand only once. Like-named read-outs stand apart in the source and are kept apart here.

Legend:
[1] = target: CgBdf1 BD1 (Candida glabrata, UniProt Q6FWV7); assay: HTRF assay, inhibition of H4ac4 peptide binding; parameters: species or system C. glabrata; settings: for %HTRF Signal Cg Bdf1 BD1: 240 min
CgBdf1 BD1, sequence (Q6FWV7 entry or part of it): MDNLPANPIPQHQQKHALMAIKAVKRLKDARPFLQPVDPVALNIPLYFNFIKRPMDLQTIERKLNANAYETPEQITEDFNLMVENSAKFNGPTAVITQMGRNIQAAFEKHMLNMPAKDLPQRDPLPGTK

[2] = target: CgBdf1 BD2 (Candida glabrata, UniProt Q6FWV7); assay: biochemical; type: binding, C. glabrata
CgBdf1 BD2, sequence (Q6FWV7 entry or part of it): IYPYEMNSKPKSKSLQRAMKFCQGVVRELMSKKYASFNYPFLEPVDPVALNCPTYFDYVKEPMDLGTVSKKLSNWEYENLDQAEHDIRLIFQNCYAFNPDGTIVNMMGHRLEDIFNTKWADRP

[3] = target: T1, CaBdf1 BD1 (Candida albicans, UniProt Q5A4W8); assay: HTRF assay, inhibition of H4ac4 peptide binding; parameters: species or system C. albicans
T1 construct: BD1 (residues 193–327) and BD2 (residues 361–501) from CaBdf1 (Uniprot ID Q5A4W8); made in house; host or cells: E. coli BL21(DE3)
T1 sequence (Q5A4W8 193-327): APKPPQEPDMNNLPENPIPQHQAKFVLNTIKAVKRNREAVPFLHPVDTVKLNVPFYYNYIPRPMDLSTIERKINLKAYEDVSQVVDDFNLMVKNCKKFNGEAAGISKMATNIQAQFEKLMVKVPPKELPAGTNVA

[4] = target: T2, CaBdf1 BD2 (Candida albicans, UniProt Q5A4W8); assay: HTRF assay, inhibition of H4ac4 peptide binding; parameters: species or system C. albicans
T2 construct: BD1 (residues 193–327) and BD2 (residues 361–501) from CaBdf1 (Uniprot ID Q5A4W8); made in house; host or cells: E. coli BL21(DE3)
T2 sequence (Q5A4W8 361-501): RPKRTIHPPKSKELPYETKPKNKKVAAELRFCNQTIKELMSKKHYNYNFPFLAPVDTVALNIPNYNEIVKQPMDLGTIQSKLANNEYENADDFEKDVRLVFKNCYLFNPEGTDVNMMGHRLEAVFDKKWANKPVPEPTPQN

[5] = system: HeLa cells; settings: highest concentration tested (300 µM); 24 h
Experimental: (§1) Cytotoxicity assays were performed as described^[ [1] ^] with minor changes. Proliferation of human cells was assessed using an MTT colorimetric assay (Cell Proliferation Kit I, Roche). HeLa (epithelial cells, ATCC number CCL‐2) and IMR90 (primary fibroblasts cells, ATCC number CCL‐186) cells were cultured in humidified atmosphere (37 °C and 5% CO2) in DMEM medium containing 10% heat inactivated fetal calf serum and 2 mM glutamine. […] Plates were incubated at 37 °C and 5% CO2 for 24 h before adding 10 mL of MTT labelling reagent (final concentration 0.5 mg mL^−1) to each well. After incubating for a further 4 h, 100 µL of the solubilization solution were added in each well. Plates were allowed to stand overnight in the incubator before measuring the absorbance at 570 nm and at 690 nm in a ClarioStar plate reader. The values of A570–A690 nm were normalized relative to that obtained with vehicle (0.2% DMSO, 0.8% ethanol) and plotted against compound concentration.

[6] = system: IMR90 (primary fibroblast) cells; settings: highest concentration tested (300 µM); 24 h
Experimental: as §1

[7] = system: C. glabrata expressing humanized Bdf1 (Brd4 BDs); assay: Growth inhibition in liquid media, humanized C. glabrata strains; settings: Fig 3D; 50 µM; humanized BDF1-flag; Exp 1-3
Experimental: Growth on Liquid Media with C. glabrata Lab Strains: Cells were grown at 30 °C in SC+M+C‐U medium (SC medium with 5 mM methionine, 0.25 mM cysteine, without uracil) to an OD600 of 0.5–0.8. […] Plates were incubated at 30 °C and OD600 was measured using a Multiskan FC Microplate Photometer (Thermo Fisher).

`Cc1ccc(-c2nnc(C)c(NCc3ccc(C)o3)n2)cc1` [Compound 24c, 6‐methyl‐N‐((5‐methylfuran‐2‐yl)methyl)‐3‐(p‐tolyl)‐1,2,4‐triazin‐5‐amine] showed an activity at 0.002 µM ([1]; 4 h, Fig 2E, 0.002 microM, read-out: %HTRF Signal Cg Bdf1 BD1) of 102%, an activity at 0.005 µM ([1]; 4 h, Fig 2E, 0.005 microM, read-out: %HTRF Signal Cg Bdf1 BD1) of 97.9% and an activity at 0.013 µM ([1]; 4 h, Fig 2E, 0.013 microM, read-out: %HTRF Signal Cg Bdf1 BD1) of 101%. It also gave an activity at 0.033 µM ([1]; 4 h, Fig 2E, 0.033 microM, read-out: %HTRF Signal Cg Bdf1 BD1) of 96.4%, an activity at 0.082 µM ([1]; 4 h, Fig 2E, 0.082 microM, read-out: %HTRF Signal Cg Bdf1 BD1) of 98% and an activity at 0.205 µM ([1]; 4 h, Fig 2E, 0.205 microM, read-out: %HTRF Signal Cg Bdf1 BD1) of 97.5%. For the same compound, the activity at 0.512 µM ([1]; 4 h, Fig 2E, 0.512 microM, read-out: %HTRF Signal Cg Bdf1 BD1) was 94.4%, the activity at 1.28 µM ([1]; 4 h, Fig 2E, 1.280 microM, read-out: %HTRF Signal Cg Bdf1 BD1) was 88.7% and the activity at 3.2 µM ([1]; 4 h, Fig 2E, 3.200 microM, read-out: %HTRF Signal Cg Bdf1 BD1) was 75%. For the same compound, the activity at 8 µM ([1]; 4 h, Fig 2E, 8.000 microM, read-out: %HTRF Signal Cg Bdf1 BD1) was 48.9%, the activity at 20 µM ([1]; 4 h, Fig 2E, 20.000 microM, read-out: %HTRF Signal Cg Bdf1 BD1) was 25.2% and the IC50 ([1]; Fig 2C original data, analogs of 24, single experiments Exp1-3, read-out: pIC50 CgBD1 (converted)) was 8.28 µM and 7.31 µM and 9.27 µM. For the same compound, the “%HTRF Signal Cg Bdf1 BD1” value ([1]; Fig 2E, 0.002 microM) was 102.33% and 103.65%, the “%HTRF Signal Cg Bdf1 BD1” value ([1]; Fig 2E, 0.005 microM) was 104.91% and 102.28% and the “%HTRF Signal Cg Bdf1 BD1” value ([1]; Fig 2E, 0.013 microM) was 100.44% and 101.24%. The “%HTRF Signal Cg Bdf1 BD1” value ([1]; Fig 2E, 0.033 microM) was 102.26% and 102.17%, the “%HTRF Signal Cg Bdf1 BD1” value ([1]; Fig 2E, 0.082 microM) was 100.01% and 99.64% and the “%HTRF Signal Cg Bdf1 BD1” value ([1]; Fig 2E, 0.205 microM) was 100.01% and 98.57%. For the same compound, the “%HTRF Signal Cg Bdf1 BD1” value ([1]; Fig 2E, 0.512 microM) was 94.98% and 94.31%, the “%HTRF Signal Cg Bdf1 BD1” value ([1]; Fig 2E, 1.280 microM, 1.28 µM) was 89.76% and 89.41% and the “%HTRF Signal Cg Bdf1 BD1” value ([1]; Fig 2E, 3.200 microM, 3.2 µM) was 77.27% and 82.10%. The “%HTRF Signal Cg Bdf1 BD1” value ([1]; Fig 2E, 8.000 microM) was 45.31% and 53.86%, the “%HTRF Signal Cg Bdf1 BD1” value ([1]; Fig 2E, 20.000 microM) was 17.43% and 18.98% and the IC50 ([1]; Fig 2E, mean and s.d., three independent experiments, read-out: IC50 (μM) CgBD1) was 8.28 µM and 8 µM. For the same compound, the “fold drop in CgBD1 inhibition” value ([1]; relative to 24, thiophenyl replaced by furyl or methylfuryl) was 4 fold, the activity at 0.002 µM ([2]; 24 h, Fig 2E, 0.002 microM, read-out: %HTRF Signal CgBdf1 BD2) was 108% and the activity at 0.005 µM ([2]; 24 h, Fig 2E, 0.005 microM, read-out: %HTRF Signal CgBdf1 BD2) was 102%. The activity at 0.013 µM ([2]; 24 h, Fig 2E, 0.013 microM, read-out: %HTRF Signal CgBdf1 BD2) was 118%, the activity at 0.033 µM ([2]; 24 h, Fig 2E, 0.033 microM, read-out: %HTRF Signal CgBdf1 BD2) was 109% and the activity at 0.082 µM ([2]; 24 h, Fig 2E, 0.082 microM, read-out: %HTRF Signal CgBdf1 BD2) was 99.8%. For the same compound, the activity at 0.205 µM ([2]; 24 h, Fig 2E, 0.205 microM, read-out: %HTRF Signal CgBdf1 BD2) was 104%, the activity at 0.512 µM ([2]; 24 h, Fig 2E, 0.512 microM, read-out: %HTRF Signal CgBdf1 BD2) was 101% and the activity at 1.28 µM ([2]; 24 h, Fig 2E, 1.280 microM, read-out: %HTRF Signal CgBdf1 BD2) was 93.8%. For the same compound, the activity at 3.2 µM ([2]; 24 h, Fig 2E, 3.200 microM, read-out: %HTRF Signal CgBdf1 BD2) was 83.5%, the activity at 8 µM ([2]; 24 h, Fig 2E, 8.000 microM, read-out: %HTRF Signal CgBdf1 BD2) was 60.2% and the IC50 ([2]; Fig 2C original data, analogs of 24, single experiments Exp1-3, read-out: pIC50 CgBD2 (converted)) was 13.9 µM and 12 µM and 9.53 µM. For the same compound, the IC50 ([2]; Fig 2E, mean and s.d., three independent experiments, read-out: IC50 (μM) CgBD2) was 11.8 µM and 12 µM, the remaining activity at 0.013 µM ([3]; CaBD1, 24c 0.013 microM, Exp1-2, read-out: Percent HTRF Signal) was 94% and the remaining activity at 0.033 µM ([3]; CaBD1, 24c 0.033 microM, Exp1-2, read-out: Percent HTRF Signal) was 100%. For the same compound, the remaining activity at 0.082 µM ([3]; CaBD1, 24c 0.082 microM, Exp1-2, read-out: Percent HTRF Signal) was 99.6%, the remaining activity at 0.2 µM ([3]; CaBD1, 24c 0.20 microM, Exp1-2, read-out: Percent HTRF Signal) was 102% and the remaining activity at […] ([3]; CaBD1, 24c 0.51 microM, Exp1-2, read-out: Percent HTRF Signal) was 96.9%. For the same compound, the remaining activity at 1.28 µM ([3]; CaBD1, 24c 1.28 microM, Exp1-2, read-out: Percent HTRF Signal) was 99%, the remaining activity at 3.2 µM ([3]; CaBD1, 24c 3.20 microM, Exp1-2, read-out: Percent HTRF Signal) was 90.4% and the remaining activity at 8 µM ([3]; CaBD1, 24c 8.00 microM, Exp1-2, read-out: Percent HTRF Signal) was 85.5%. The remaining activity at 20 µM ([3]; CaBD1, 24c 20.00 microM, Exp1-2, read-out: Percent HTRF Signal) was 73.3%, the “inhibition of Bdf1 BD1 from C. albicans” value ([3]; HTRF, Fig S9C) was “weakly inhibited” and the remaining activity at 0.013 µM ([4]; CaBD2, 24c 0.013 microM, Exp1-2, read-out: Percent HTRF Signal) was 94.3%. It also gave a remaining activity at 0.033 µM ([4]; CaBD2, 24c 0.033 microM, Exp1-2, read-out: Percent HTRF Signal) of 96.5%, a remaining activity at 0.082 µM ([4]; CaBD2, 24c 0.082 microM, Exp1-2, read-out: Percent HTRF Signal) of 102% and a remaining activity at 0.2 µM ([4]; CaBD2, 24c 0.20 microM, Exp1-2, read-out: Percent HTRF Signal) of 102%. For the same compound, the remaining activity at […] ([4]; CaBD2, 24c 0.51 microM, Exp1-2, read-out: Percent HTRF Signal) was 97.5%, the remaining activity at 1.28 µM ([4]; CaBD2, 24c 1.28 microM, Exp1-2, read-out: Percent HTRF Signal) was 98.1% and the remaining activity at 3.2 µM ([4]; CaBD2, 24c 3.20 microM, Exp1-2, read-out: Percent HTRF Signal) was 92.6%. The remaining activity at 8 µM ([4]; CaBD2, 24c 8.00 microM, Exp1-2, read-out: Percent HTRF Signal) was 90.1%, the remaining activity at 20 µM ([4]; CaBD2, 24c 20.00 microM, Exp1-2, read-out: Percent HTRF Signal) was 74.1% and the “inhibition of Bdf1 BD2 from C. albicans” value ([4]; HTRF, Fig S9C) was “weakly inhibited”. For the same compound, the “cytotoxicity toward HeLa cells (MTT)” value [5] was “modest cytotoxicity”, the “cytotoxicity toward IMR90 cells (MTT)” value [6] was “modest cytotoxicity” and the “%Growth” value [7] was 82.6% and 80.3% and 69.6%.
